The source of these data is PubChem BioAssay (NCI).

Among the test systems are CAKI-1 renal; HCC-2998 colon; HL-60(TB) leukemia; HOP-92 NSCLC; K-562 leukemia; KM12 colon; RXF 393 renal; SF-268 CNS; SK-OV-3 ovarian; TK-10 renal.
Test in all cases: growth of human tumour cells (NCI), 48 h

Values joined by “and” are separate entries in the source; they are usually repeats but may differ in a detail not shown here. Equal values may be shown once.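 Assay format: 96-well plates, 48-hour exposure. GI50 = concentration required for 50% inhibition of growth. Definition used: TGI = concentration required for complete inhibition of growth.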 Some results are limits rather than exact numbers.

As to `[N-]=[N+]=NCCCCCC(=O)OC(C(=O)c1ccccc1)c1cccc(OCC(=O)NCCOCCOCCNC(=O)CCCC[C@@H]2SC[C@@H]3NC(=O)N[C@@H]32)c1` (some centres undefined), the GI50 in the test with CAKI-1 renal was > 100 µM; with HCC-2998 colon, 39.6 µM; in the test with HL-60(TB) leukemia, 27.8 µM; in the test with HOP-92 NSCLC, 34.9 µM; with K-562 leukemia, 62.9 µM; in the test on KM12 colon it was > 100 µM. Besides, the GI50 in the test on RXF 393 renal was 56.3 µM; in the test on SF-268 CNS, > 100 µM; in the test with SK-OV-3 ovarian it was > 100 µM; in the test on TK-10 renal, > 100 µM. The TGI in the test on CAKI-1 renal, in the test on HCC-2998 colon, in the test on HL-60(TB) leukemia, in the test on HOP-92 NSCLC, in the test with K-562 leukemia and with KM12 colon was > 100 µM throughout. For the same molecule, the TGI with RXF 393 renal, in the test with SF-268 CNS, in the test on SK-OV-3 ovarian and with TK-10 renal was > 100 µM each time.
For `O=C(NCCCO)c1cc(Cl)ccc1O`, the GI50 with CAKI-1 renal is 6.11 µM; with HCC-2998 colon, 3.1 µM; with HL-60(TB) leukemia, 2.22 µM; in the test on HOP-92 NSCLC, 0.468 µM; in the test with K-562 leukemia it was 0.901 µM; in the test on KM12 colon, 2.43 µM. For the same molecule, the GI50 in the test on RXF 393 renal is 3.94 µM; with SF-268 CNS, 6.52 µM; in the test on SK-OV-3 ovarian, 3.31 µM; with TK-10 renal, 4.26 µM. Also, the TGI is 24.6 µM in the test on CAKI-1 renal; 14.3 µM in the test on HCC-2998 colon; 6.35 µM with HL-60(TB) leukemia; 3.37 µM with HOP-92 NSCLC; 18.4 µM in the test with K-562 leukemia; 12.9 µM in the test on KM12 colon. The TGI in the test with RXF 393 renal was 12.9 µM; in the test on SF-268 CNS, 20.2 µM; with SK-OV-3 ovarian, 12.3 µM; with TK-10 renal it was 15.1 µM.
Turning to `CC(Nc1ccc(S(=O)(=O)N=C(N)N)cc1)c1c2ccccc2nc2ccccc12` (centres undefined), the TGI in the test with CAKI-1 renal is 81 µM; with HCC-2998 colon, 82.7 µM; in the test with HL-60(TB) leukemia, 39.2 µM; in the test with HOP-92 NSCLC, 55.5 µM; in the test with K-562 leukemia, 99.4 µM; with KM12 colon, > 100 µM. The TGI is 85.3 µM with RXF 393 renal, > 100 µM in the test with SF-268 CNS, 73.6 µM with SK-OV-3 ovarian and > 100 µM in the test on TK-10 renal.
`COC(=O)c1cccn1C(=O)n1cccc1`: the TGI with CAKI-1 renal, with HCC-2998 colon, in the test with HL-60(TB) leukemia, in the test on HOP-92 NSCLC, in the test with K-562 leukemia and in the test with KM12 colon was > 100 µM throughout. The TGI with RXF 393 renal, in the test with SF-268 CNS, in the test on SK-OV-3 ovarian and in the test on TK-10 renal was > 100 µM in each case.
Consider `CCC(=C/[C@H](C)C/C=C/C(C)=C/[C@@H](C)C(=O)[C@@H](C)[C@H](O)[C@@H](C)CC)/C=C/[C@@H]1OC(=O)C=C[C@H]1C`, for which the GI50 in the test on CAKI-1 renal, in the test on HCC-2998 colon, in the test on HL-60(TB) leukemia, with HOP-92 NSCLC, with K-562 leukemia and in the test on KM12 colon was < 0.01 µM throughout. Further, the GI50 in the test with RXF 393 renal, with SF-268 CNS, in the test on SK-OV-3 ovarian and with TK-10 renal was < 0.01 µM throughout. Moreover, the TGI with CAKI-1 renal is < 0.01 µM; in the test with HCC-2998 colon, < 0.01 µM; in the test with HL-60(TB) leukemia, < 0.01 µM; in the test with HOP-92 NSCLC, < 0.01 µM; in the test with K-562 leukemia it was 1.07 µM; in the test on KM12 colon, 0.126 µM. The TGI in the test on RXF 393 renal was < 0.01 µM; in the test on SK-OV-3 ovarian, < 0.0115 µM; in the test with TK-10 renal, 1.52 µM.
As for `C/C1=C/C(=O)O[C@@H]2C[C@@H](CC[C@H](C)/C=C\C=C\CC1)O[C@@](O)([C@@H]1CSC(=O)N1)C2`, the TGI with CAKI-1 renal was 0.619 µM; with HCC-2998 colon, > 10 µM; with HL-60(TB) leukemia, > 10 µM; in the test on HOP-92 NSCLC, 0.356 µM; in the test with K-562 leukemia, > 10 µM; in the test on KM12 colon, > 10 µM. For the same molecule, the TGI in the test with RXF 393 renal is 0.752 µM; in the test on SF-268 CNS, 1.38 µM; in the test on SK-OV-3 ovarian, > 9.4 µM; in the test with TK-10 renal it was 1.01 µM.
`O=c1c(Br)cc2nc3ccccc3sc-2c1Br`: the TGI was > 100 µM in the test with CAKI-1 renal; > 100 µM in the test on HCC-2998 colon; 38.9 µM in the test with HL-60(TB) leukemia; > 100 µM with HOP-92 NSCLC; 55.5 µM with K-562 leukemia; > 100 µM in the test with KM12 colon. For the same molecule, the TGI in the test on RXF 393 renal, with SF-268 CNS, in the test with SK-OV-3 ovarian and in the test with TK-10 renal was > 100 µM each time.
As to `O=C(O)C1(C(=O)O)CCC1.[NH2-].[NH2-].[Pt+2]`, the GI50 was > 90.8 µM and 66.7 µM with CAKI-1 renal; 209 µM and > 250 µM with HCC-2998 colon; 29.5 µM and 12.7 µM with HL-60(TB) leukemia; 125 µM and 106 µM in the test with HOP-92 NSCLC; 142 µM and > 166 µM in the test on K-562 leukemia; 218 µM and > 250 µM with KM12 colon. The GI50 with RXF 393 renal was 76 µM and 178 µM; in the test on SF-268 CNS, 49.2 µM and 21.5 µM; in the test with SK-OV-3 ovarian, 172 µM and > 240 µM; in the test on TK-10 renal it was 220 µM and 131 µM. Further, the TGI was 231 µM and > 250 µM in the test on CAKI-1 renal; > 250 µM in the test with HCC-2998 colon; 201 µM and 191 µM in the test with HL-60(TB) leukemia; 222 µM and 246 µM in the test on HOP-92 NSCLC; > 250 µM in the test with K-562 leukemia; > 250 µM with KM12 colon. Moreover, the TGI was 167 µM and > 250 µM in the test with RXF 393 renal; 209 µM and 161 µM in the test on SF-268 CNS; 243 µM and > 250 µM with SK-OV-3 ovarian; > 250 µM with TK-10 renal.
Regarding `CC(=O)c1c(C)[nH]c(-c2nc3ccc(N4CCN(C)CC4)cc3[nH]2)c1-c1ccc(N(C)C)cc1`, the GI50 in the test on CAKI-1 renal is 0.309 µM; with HCC-2998 colon it was 1.06 µM; in the test on HL-60(TB) leukemia it was 0.118 µM; in the test on HOP-92 NSCLC it was 0.147 µM; in the test with K-562 leukemia it was 0.461 µM; in the test with KM12 colon, 1.34 µM. Besides, the GI50 in the test on RXF 393 renal was 0.486 µM; with SF-268 CNS, 4.1 µM; in the test on SK-OV-3 ovarian, 0.465 µM; in the test on TK-10 renal it was 0.294 µM. Moreover, the TGI with CAKI-1 renal is 13.9 µM; in the test on HCC-2998 colon, 8.38 µM; in the test with HL-60(TB) leukemia it was 0.596 µM; with HOP-92 NSCLC, 2.53 µM; with K-562 leukemia it was 8.79 µM; with KM12 colon, 20.2 µM. Further, the TGI stood at 2.08 µM in the test with RXF 393 renal, 26.8 µM in the test with SF-268 CNS, 3.65 µM in the test with SK-OV-3 ovarian and 15.8 µM in the test with TK-10 renal.
